The record followed here is PMC12749626, “Expediting hit-to-lead progression in drug discovery through reaction prediction and multi-dimensional optimization” (Nature Communications, 2025).

Series [1] deals with 5HT3 (Homo sapiens, UniProt P46098). Put plainly: biochemical. The following applies: read-out: 5HT3 percent activity or inhibition compared to the assay reference.
The target in series [2] is A[…]. ENZ. (Homo sapiens, UniProt P12821). Put plainly: biochemical. Conditions: read-out: A[…]. ENZ. percent activity or inhibition compared to the assay reference.
For series [3], the target named is HISTAMINE H3 REC. (Homo sapiens, UniProt Q9Y5N1). Put plainly: biochemical. Conditions: read-out: HISTAMINE H3 REC. percent activity or inhibition compared to the assay reference.
Series [4] has as its target GSK-3A (Homo sapiens, UniProt P49840). Put plainly: biochemical. Conditions: read-out: GSK-3A percent activity or inhibition compared to the assay reference.
For series [5], the target named is PPARγ (Homo sapiens, UniProt P37231). Kind of series: biochemical. The following applies: read-out: PPARγ percent activity or inhibition compared to the assay reference.
Chain of PPARγ (P37231 whole entry): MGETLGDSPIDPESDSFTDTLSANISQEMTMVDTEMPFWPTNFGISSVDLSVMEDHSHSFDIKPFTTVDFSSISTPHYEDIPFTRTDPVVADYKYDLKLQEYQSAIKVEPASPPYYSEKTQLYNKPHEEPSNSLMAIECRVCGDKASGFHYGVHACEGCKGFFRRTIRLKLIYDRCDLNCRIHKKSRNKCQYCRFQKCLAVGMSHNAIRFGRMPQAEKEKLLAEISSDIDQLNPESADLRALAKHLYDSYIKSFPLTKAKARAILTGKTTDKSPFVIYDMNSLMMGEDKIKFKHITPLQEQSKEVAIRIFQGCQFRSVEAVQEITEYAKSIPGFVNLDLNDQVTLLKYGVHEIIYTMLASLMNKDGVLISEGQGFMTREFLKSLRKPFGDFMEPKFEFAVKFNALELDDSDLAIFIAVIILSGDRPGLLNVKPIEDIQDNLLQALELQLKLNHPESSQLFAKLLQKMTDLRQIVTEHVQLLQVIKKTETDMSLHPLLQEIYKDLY
The target of series [6] is XANTHINE OXIDASE (Bos taurus, UniProt P80457). Put plainly: biochemical. Conditions: read-out: XANTHINE OXIDASE percent activity or inhibition compared to the assay reference.
Chain of XANTHINE OXIDASE (P80457 2-1332): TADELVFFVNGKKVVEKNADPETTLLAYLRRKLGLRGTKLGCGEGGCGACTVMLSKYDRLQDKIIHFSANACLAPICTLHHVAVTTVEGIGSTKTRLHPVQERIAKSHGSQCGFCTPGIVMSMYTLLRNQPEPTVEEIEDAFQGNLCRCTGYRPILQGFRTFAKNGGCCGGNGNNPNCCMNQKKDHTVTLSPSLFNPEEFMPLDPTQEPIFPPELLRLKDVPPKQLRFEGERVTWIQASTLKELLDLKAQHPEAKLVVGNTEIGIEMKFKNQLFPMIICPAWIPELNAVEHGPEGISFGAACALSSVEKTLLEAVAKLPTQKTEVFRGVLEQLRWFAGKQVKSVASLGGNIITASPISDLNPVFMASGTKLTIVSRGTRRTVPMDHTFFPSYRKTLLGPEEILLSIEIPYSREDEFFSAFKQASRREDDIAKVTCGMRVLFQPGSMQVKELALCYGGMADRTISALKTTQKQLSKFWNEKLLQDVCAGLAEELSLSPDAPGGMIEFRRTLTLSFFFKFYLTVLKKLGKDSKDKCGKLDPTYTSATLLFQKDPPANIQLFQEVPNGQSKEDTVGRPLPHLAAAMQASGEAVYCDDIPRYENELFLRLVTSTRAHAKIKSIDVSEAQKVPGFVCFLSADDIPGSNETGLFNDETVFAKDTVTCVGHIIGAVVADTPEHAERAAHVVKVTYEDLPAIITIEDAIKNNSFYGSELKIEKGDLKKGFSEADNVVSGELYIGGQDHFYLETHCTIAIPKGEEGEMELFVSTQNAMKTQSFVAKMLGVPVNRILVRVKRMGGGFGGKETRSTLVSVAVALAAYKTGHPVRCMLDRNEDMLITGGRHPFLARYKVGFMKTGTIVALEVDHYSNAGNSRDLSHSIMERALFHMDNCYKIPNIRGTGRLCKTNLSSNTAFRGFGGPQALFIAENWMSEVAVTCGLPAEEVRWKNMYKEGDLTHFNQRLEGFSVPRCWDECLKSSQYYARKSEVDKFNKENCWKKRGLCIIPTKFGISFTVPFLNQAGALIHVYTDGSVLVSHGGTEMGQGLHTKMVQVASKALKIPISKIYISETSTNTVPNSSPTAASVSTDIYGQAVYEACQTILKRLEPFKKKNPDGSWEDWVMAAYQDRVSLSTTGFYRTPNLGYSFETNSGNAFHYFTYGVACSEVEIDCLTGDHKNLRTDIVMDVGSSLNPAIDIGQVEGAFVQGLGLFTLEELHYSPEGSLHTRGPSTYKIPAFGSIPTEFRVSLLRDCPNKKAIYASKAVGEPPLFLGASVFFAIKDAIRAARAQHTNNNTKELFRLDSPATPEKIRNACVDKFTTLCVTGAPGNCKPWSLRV
Series [7] is described as follows: Microsomal clearance, human microsomes.
Series [8] addresses μ OPIOID REC. (Homo sapiens, UniProt P35372). Kind of series: biochemical. The following applies: read-out: μ OPIOID REC. percent activity or inhibition compared to the assay reference.
Series [9] has as its target PHOSPHODIESTERASE 4D2 (Homo sapiens, UniProt Q08499). Kind of series: biochemical. Conditions: read-out: PHOSPHODIESTERASE 4D2 percent activity or inhibition compared to the assay reference.
Series [10] deals with κ OPIOID REC. (Homo sapiens, UniProt P41145). Kind of series: biochemical. The following applies: read-out: κ OPIOID REC. percent activity or inhibition compared to the assay reference.
Series [11] addresses […]. M2 (Homo sapiens, UniProt P08172). Put plainly: biochemical. The following applies: read-out: […]. M2 percent activity or inhibition compared to the assay reference.
Series [12] concerns the target GSK-3B (Homo sapiens, UniProt P49841). Put plainly: biochemical. The following applies: read-out: GSK-3B percent activity or inhibition compared to the assay reference.
In series [13] the target is CYP3A4 (Homo sapiens, UniProt P08684). Put plainly: Cytochrome P450 inhibition assay, CYP3A4. The following applies: liver microsomes. (In general: Microsomes from liver hold many membrane-bound enzymes, among them those of drug oxidation.)
Chain of CYP3A4 (P08684 whole entry): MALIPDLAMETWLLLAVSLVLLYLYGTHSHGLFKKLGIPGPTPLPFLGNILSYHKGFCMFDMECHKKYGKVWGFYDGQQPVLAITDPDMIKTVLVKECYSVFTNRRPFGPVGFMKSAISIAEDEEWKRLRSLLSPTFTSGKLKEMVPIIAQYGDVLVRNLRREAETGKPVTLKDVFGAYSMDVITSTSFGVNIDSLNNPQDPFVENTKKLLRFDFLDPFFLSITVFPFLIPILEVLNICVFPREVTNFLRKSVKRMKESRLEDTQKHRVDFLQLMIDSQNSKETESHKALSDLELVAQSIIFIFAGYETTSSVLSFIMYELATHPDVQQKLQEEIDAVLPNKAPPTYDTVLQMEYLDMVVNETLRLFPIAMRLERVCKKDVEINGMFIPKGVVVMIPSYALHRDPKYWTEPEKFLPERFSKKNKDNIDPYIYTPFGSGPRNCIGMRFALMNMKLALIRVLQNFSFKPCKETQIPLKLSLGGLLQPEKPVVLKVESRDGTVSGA
Series [14] addresses NORE[…]. (Homo sapiens, UniProt P23975). Put plainly: biochemical. Conditions: read-out: NORE[…]. percent activity or inhibition compared to the assay reference.
Series [15] concerns the target HISTAMINE H1 REC. (Homo sapiens, UniProt P35367). Kind of series: biochemical. The following applies: read-out: HISTAMINE H1 REC. percent activity or inhibition compared to the assay reference.
The target of series [16] is 5HT2A (Homo sapiens, UniProt P28223). Kind of series: biochemical. Conditions: read-out: 5HT2A percent activity or inhibition compared to the assay reference.
Chain of 5HT2A (P28223 whole entry): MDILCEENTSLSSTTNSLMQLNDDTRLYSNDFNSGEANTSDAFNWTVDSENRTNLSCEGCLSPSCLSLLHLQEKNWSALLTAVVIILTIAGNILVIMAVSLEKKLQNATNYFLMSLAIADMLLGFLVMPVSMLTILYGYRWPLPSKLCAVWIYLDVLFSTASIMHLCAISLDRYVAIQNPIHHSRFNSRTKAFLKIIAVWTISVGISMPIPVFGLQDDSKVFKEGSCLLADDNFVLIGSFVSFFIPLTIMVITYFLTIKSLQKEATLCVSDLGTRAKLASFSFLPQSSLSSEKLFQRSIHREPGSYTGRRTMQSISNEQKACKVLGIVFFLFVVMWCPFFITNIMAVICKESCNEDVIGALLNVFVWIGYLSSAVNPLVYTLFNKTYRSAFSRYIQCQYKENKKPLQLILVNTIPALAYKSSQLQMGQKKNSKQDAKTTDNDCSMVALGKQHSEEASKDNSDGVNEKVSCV
In series [17] the target is ANGIOTENSIN II REC. 1 (Homo sapiens, UniProt P30556). Kind of series: biochemical. The following applies: read-out: ANGIOTENSIN II REC. 1 percent activity or inhibition compared to the assay reference.
The target of series [18] is ADENOSINE A1 REC. (Homo sapiens, UniProt P30542). Kind of series: biochemical. The following applies: read-out: ADENOSINE A1 REC. percent activity or inhibition compared to the assay reference.
Chain of ADENOSINE A1 REC. (P30542 whole entry): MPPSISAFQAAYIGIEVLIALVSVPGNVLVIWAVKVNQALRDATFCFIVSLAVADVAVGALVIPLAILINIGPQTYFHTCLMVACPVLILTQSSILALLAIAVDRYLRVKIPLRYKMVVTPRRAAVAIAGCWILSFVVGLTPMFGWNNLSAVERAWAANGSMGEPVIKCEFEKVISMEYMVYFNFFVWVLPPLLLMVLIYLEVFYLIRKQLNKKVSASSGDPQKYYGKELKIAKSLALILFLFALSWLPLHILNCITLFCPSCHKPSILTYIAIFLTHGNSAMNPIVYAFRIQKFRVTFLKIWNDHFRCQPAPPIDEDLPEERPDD
Series [19] addresses β1-ADRENOCEPTOR (Homo sapiens, UniProt P08588). Kind of series: biochemical. The following applies: read-out: β1-ADRENOCEPTOR percent activity or inhibition compared to the assay reference.
The target in series [20] is β2-ADRENOCEPTOR (Homo sapiens, UniProt P07550). Put plainly: biochemical. Conditions: read-out: β2-ADRENOCEPTOR percent activity or inhibition compared to the assay reference.
Chain of UniProt P07550 (P07550 whole entry): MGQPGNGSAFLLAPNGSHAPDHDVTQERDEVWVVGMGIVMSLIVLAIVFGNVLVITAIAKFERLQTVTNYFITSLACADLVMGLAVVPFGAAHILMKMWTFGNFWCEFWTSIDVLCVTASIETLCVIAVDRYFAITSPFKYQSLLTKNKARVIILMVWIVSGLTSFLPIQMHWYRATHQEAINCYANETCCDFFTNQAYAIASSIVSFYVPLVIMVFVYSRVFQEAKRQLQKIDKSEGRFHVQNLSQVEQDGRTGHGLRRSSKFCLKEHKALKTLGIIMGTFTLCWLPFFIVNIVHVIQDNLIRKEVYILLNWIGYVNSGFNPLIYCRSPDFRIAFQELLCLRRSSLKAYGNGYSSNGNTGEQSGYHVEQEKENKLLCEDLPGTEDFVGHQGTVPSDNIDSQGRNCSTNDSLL
Series [21] has as its target PROSTAGLANDIN F REC. (Homo sapiens, UniProt P43088). Put plainly: biochemical. The following applies: read-out: PROSTAGLANDIN F REC. percent activity or inhibition compared to the assay reference.
Series [22] addresses 5HT2B (Homo sapiens, UniProt P41595). Kind of series: biochemical. Conditions: read-out: 5HT2B percent activity or inhibition compared to the assay reference.
In series [23] the target is α2A-ADRENOCEPTOR (Homo sapiens, UniProt P08913). Kind of series: biochemical. Conditions: read-out: α2A-ADRENOCEPTOR percent activity or inhibition compared to the assay reference.
The target of series [24] is PHOSPHODIESTERASE 3B (Homo sapiens, UniProt Q13370). Put plainly: biochemical. Conditions: read-out: PHOSPHODIESTERASE 3B percent activity or inhibition compared to the assay reference.
Series [25] deals with HIV-1 PROTEASE (Human immunodeficiency virus type 1 group M subtype B, UniProt P04585). Put plainly: biochemical. The following applies: read-out: HIV-1 PROTEASE percent activity or inhibition compared to the assay reference.
The subject of series [26] is PCP NMDA REC. Conditions: 10 uM; n=2.
The subject of series [27] is MUSCULAR NICOTINIC REC. Conditions: 10 uM; n=2.
The subject of series [28] is CA2+ CHANNEL (L-TYPE). The following applies: 10 uM; n=2.
Series [29] deals with GABA-A. The following applies: 10 uM; n=2.
The subject of series [30] is NEURONAL NICOTINIC REC. Conditions: 10 uM; n=2.

Chain of GSK-3A (P49840 whole entry): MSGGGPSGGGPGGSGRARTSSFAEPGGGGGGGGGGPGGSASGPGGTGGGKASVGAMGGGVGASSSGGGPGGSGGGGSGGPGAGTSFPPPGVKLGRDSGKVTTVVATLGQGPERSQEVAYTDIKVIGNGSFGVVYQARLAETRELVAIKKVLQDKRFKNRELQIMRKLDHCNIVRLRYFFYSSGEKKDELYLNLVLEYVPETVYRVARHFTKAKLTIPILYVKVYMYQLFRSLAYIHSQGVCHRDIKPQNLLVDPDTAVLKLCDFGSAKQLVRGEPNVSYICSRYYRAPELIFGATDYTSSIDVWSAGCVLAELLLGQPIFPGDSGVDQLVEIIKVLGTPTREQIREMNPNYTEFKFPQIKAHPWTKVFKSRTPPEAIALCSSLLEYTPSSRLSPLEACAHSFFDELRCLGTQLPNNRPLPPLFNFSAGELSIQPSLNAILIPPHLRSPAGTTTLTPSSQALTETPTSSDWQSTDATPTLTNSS
Chain of […]. M2 (P08172 whole entry): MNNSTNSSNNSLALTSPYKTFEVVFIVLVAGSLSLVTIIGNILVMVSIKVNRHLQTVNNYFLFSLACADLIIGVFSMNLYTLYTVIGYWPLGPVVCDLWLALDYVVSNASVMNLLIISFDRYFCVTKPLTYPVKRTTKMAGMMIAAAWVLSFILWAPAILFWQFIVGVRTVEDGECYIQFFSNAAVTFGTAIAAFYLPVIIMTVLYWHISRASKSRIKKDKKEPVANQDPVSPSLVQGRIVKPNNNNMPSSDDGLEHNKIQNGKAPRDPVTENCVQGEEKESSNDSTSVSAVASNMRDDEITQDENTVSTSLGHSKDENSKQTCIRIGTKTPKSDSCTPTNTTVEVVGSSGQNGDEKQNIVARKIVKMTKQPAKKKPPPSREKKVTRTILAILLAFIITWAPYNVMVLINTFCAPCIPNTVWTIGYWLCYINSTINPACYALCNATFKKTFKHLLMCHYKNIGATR
Chain of μ OPIOID REC. (P35372 whole entry): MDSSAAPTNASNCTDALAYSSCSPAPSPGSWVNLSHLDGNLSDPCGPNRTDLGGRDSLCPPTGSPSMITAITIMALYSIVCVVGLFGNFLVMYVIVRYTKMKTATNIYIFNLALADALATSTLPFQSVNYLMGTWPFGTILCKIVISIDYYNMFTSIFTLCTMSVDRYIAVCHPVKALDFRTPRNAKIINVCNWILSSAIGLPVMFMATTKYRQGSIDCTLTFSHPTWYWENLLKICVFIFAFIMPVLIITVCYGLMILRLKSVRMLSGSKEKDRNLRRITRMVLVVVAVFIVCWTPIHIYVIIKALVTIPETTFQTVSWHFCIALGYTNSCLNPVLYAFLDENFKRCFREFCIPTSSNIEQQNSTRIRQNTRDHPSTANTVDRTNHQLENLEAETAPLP

For orientation: inhibition means the relative decrease from the control value, in per cent. In general, microsomal CLint refers to a measure of how fast metabolising enzymes remove a compound, apart from limits set by blood flow. As to `O=C(c1ccc2nc(-c3cccnc3)oc2c1)N1CCN(c2nc3ccccc3c(=O)[nH]2)CC1` [Compound 17], the inhibition at 10 µM in [1] is 0%; in series [2], 16%; in series [3], 14%; in series [4], 8%; in series [5], -4%; in [6] it was 2%. In addition, the inhibition at 10 µM in series [8] is 48%; in series [9], 21%; in series [10], 15%; in series [11], 27%; in series [12] it was -21%; in [14], 15%. Further, the inhibition at 10 µM was 13% in [15]; 7% in series [16]; -3% in series [17]; 70% in series [18]; 4% in series [19]; 1% in series [20]. Besides, the inhibition at 10 µM in series [21] is -2%; in [22], 28%; in [23], 7%; in series [24], 2%; in series [25] it was 11%. This molecule showed an intrinsic metabolic clearance (microsomal CLint) at 1 µM in series [7] of 10 µL/min/mg. The “CYP3A4 Inhibition” value in [13] was determined as 16%.
With `O=C(c1ccc2nc(-c3cnccc3C3CCCC3)oc2c1)N1CCN(c2nc3nc(Cl)ccc3o2)CC1` [Compound 23], the inhibition at 10 µM was -6% in [1]; -17% in series [2]; 4% in series [3]; 1% in series [4]; 7% in series [5]; 6% in [6]. Besides, the inhibition at 10 µM is 21% in [8]; 20% in series [9]; 18% in series [10]; 40% in [11]; -20% in series [12]; 15% in [14]. Besides, the inhibition at 10 µM in [15] amounted to 11%; in series [16], 2%; in series [17], 11%; in [18] it was 24%; in series [19], 2%; in series [20], 4%. Further, the inhibition at 10 µM was -3% in [21]; 3% in [22]; 3% in series [23]; -8% in [24]; 31% in series [25]. Moreover, in series [26], the “PCP NMDA REC. percent activity or inhibition compared to the assay reference” value was determined as 7%. The molecule further registered a microsomal CLint at 1 µM in series [7] of 415 µL/min/mg. Moreover, in [27], the “MUSCULAR NICOTINIC REC. percent activity or inhibition compared to the assay reference” value stood at 0%. In addition, the “CA2+ CHANNEL (L-TYPE) percent activity or inhibition compared to the assay reference” value in series [28] is recorded as 73%. Also, the “CYP3A4 Inhibition” value in [13] is > 90%. In addition, the “GABA-A percent activity or inhibition compared to the assay reference” value (shortened to “GABA-A percent activity or inhibition”) in series [29] is listed as 16%. Also, the “NEURONAL NICOTINIC REC. percent activity or inhibition compared to the assay reference” value in series [30] is -3%.
For the molecule `O=C(c1ccc2nc(-c3cnccc3C3(C4CCC4)CC3)oc2c1)N1CCN(c2nc3nc(Cl)ccc3o2)CC1` [Compound 27], the “PCP NMDA REC. percent activity or inhibition compared to the assay reference” value in series [26] turned out to be 8%. Also, the “MUSCULAR NICOTINIC REC. percent activity or inhibition compared to the assay reference” value in series [27] was 2%. Besides, in series [28], the “CA2+ CHANNEL (L-TYPE) percent activity or inhibition compared to the assay reference” value amounted to 90%. Besides, the “CYP3A4 Inhibition” value in series [13] was > 90%. Also, the “GABA-A percent activity or inhibition” value in series [29] is reported as 69%. The “NEURONAL NICOTINIC REC. percent activity or inhibition compared to the assay reference” value in series [30] was -8%.
On to `O=C(c1ccc2nc(-c3cnccc3C3CCCC3)oc2c1)N1CC2(CC(n3cnc(C4CC4)n3)C2)C1` [Compound 29], for which the inhibition at 10 µM was -2% in series [1]; -13% in series [2]; 12% in series [3]; 16% in series [4]; 16% in series [5]; 3% in [6]. Further, the inhibition at 10 µM in series [8] was 30%; in [9], 65%; in [10], 32%; in series [11], 33%; in series [12], -19%; in series [14], 22%. The inhibition at 10 µM amounted to 18% in series [15]; 10% in series [16]; 15% in series [17]; 9% in series [18]; 7% in [19]; 7% in [20]. The inhibition at 10 µM was determined as 21% in series [21]; 55% in series [22]; 18% in series [23]; 6% in [24]; 31% in series [25]. Further, in series [26], the “PCP NMDA REC. percent activity or inhibition compared to the assay reference” value is given as -1%. Besides, the microsomal CLint at 1 µM in series [7] stood at 425 µL/min/mg. The “MUSCULAR NICOTINIC REC. percent activity or inhibition compared to the assay reference” value in series [27] amounted to 24%. The “CA2+ CHANNEL (L-TYPE) percent activity or inhibition compared to the assay reference” value in series [28] was found to be 32%. Besides, the “CYP3A4 Inhibition” value in [13] was 84%. Further, the “GABA-A percent activity or inhibition” value in [29] is reported as 61%. For the same molecule, the “NEURONAL NICOTINIC REC. percent activity or inhibition compared to the assay reference” value in series [30] came out at 6%.
